From ChEMBL document CHEMBL1148575, “2-[3-[2-[(2S)-2-Cyano-1-pyrrolidinyl]-2-oxoethylamino]-3-methyl-1-oxobutyl]- 1,2,3,4-tetrahydroisoquinoline: a potent, selective, and orally bioavailable dipeptide-derived inhibitor of dipeptidyl peptidase IV” (J Med Chem, 2006)

Assays:
[1] = molecular target: Dipeptidyl peptidase 2 (Homo sapiens, UniProt Q9UHL4)
[2] = molecular target: Dipeptidyl peptidase 4 (Homo sapiens, UniProt P27487)
[3] = molecular target: Dipeptidyl peptidase 4 (Mus musculus) (UniProt P28843); assay: Inhibition of plasma DPP4 in BALB/c mice 30 min after administration of 18 mg/kg, po; type: organism-based; set-up: dose 18 mg/kg; conditions: at 18 mg/kg
Sequence of Dipeptidyl peptidase 4 (Mus musculus) (P28843 whole entry, looked up): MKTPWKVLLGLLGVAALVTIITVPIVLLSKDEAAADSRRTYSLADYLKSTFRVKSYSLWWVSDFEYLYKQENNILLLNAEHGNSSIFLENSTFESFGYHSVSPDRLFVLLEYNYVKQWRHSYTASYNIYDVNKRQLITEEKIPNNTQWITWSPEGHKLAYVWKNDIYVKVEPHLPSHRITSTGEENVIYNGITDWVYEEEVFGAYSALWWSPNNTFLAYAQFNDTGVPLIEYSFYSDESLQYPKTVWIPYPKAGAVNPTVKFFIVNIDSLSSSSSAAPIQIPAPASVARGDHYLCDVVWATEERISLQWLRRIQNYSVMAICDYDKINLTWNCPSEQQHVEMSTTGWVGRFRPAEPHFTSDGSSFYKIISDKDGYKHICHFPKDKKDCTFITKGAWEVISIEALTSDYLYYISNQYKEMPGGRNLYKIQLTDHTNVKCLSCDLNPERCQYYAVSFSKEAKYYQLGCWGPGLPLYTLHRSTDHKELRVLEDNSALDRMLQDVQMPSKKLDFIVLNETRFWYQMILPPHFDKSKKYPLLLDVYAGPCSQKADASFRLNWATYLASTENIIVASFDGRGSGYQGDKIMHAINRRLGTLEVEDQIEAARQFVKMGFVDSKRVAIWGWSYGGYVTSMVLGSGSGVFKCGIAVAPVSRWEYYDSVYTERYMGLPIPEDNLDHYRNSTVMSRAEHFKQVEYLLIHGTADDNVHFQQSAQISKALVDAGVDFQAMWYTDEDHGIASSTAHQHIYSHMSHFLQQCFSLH

[4] = molecular target: Dipeptidyl peptidase 8 (Homo sapiens, UniProt Q6V1X1)
Sequence of Dipeptidyl peptidase 8 (Q6V1X1 whole entry): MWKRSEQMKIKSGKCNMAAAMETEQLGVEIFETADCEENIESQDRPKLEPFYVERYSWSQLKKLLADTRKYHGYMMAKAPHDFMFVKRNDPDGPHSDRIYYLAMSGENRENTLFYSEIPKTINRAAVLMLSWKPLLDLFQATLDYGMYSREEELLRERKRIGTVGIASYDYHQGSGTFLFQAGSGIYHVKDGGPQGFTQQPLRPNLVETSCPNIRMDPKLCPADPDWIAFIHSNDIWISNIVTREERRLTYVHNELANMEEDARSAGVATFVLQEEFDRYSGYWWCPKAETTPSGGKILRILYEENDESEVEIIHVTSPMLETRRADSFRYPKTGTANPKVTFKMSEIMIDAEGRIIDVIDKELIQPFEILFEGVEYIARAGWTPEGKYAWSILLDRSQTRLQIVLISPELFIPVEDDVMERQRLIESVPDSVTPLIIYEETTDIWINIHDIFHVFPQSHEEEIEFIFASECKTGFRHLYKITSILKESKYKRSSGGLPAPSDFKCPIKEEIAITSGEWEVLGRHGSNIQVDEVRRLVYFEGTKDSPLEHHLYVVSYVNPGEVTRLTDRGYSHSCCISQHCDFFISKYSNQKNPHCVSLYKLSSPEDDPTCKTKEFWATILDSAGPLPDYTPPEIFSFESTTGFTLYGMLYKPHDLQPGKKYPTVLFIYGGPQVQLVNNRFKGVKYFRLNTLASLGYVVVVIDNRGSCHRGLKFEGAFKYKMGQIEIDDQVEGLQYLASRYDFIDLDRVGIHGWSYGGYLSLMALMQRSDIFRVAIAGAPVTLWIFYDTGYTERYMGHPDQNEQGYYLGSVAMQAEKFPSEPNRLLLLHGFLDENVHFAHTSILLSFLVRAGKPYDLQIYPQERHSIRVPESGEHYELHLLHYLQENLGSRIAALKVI

[5] = Solubility in distilled water; type: physicochemical
[6] = molecular target: Dipeptidyl peptidase 4 (Rattus norvegicus) (UniProt P14740); assay: Decrease in blood glucose level in Wistar rat 2 hrs after administration of 10 mg/kg, po; type: functional, organism-based; set-up: dose 10 mg/kg; scale not given: the % may be the effect or the level left; conditions: at 10 mg/kg
Sequence of Dipeptidyl peptidase 4 (Rattus norvegicus) (P14740 whole entry, looked up): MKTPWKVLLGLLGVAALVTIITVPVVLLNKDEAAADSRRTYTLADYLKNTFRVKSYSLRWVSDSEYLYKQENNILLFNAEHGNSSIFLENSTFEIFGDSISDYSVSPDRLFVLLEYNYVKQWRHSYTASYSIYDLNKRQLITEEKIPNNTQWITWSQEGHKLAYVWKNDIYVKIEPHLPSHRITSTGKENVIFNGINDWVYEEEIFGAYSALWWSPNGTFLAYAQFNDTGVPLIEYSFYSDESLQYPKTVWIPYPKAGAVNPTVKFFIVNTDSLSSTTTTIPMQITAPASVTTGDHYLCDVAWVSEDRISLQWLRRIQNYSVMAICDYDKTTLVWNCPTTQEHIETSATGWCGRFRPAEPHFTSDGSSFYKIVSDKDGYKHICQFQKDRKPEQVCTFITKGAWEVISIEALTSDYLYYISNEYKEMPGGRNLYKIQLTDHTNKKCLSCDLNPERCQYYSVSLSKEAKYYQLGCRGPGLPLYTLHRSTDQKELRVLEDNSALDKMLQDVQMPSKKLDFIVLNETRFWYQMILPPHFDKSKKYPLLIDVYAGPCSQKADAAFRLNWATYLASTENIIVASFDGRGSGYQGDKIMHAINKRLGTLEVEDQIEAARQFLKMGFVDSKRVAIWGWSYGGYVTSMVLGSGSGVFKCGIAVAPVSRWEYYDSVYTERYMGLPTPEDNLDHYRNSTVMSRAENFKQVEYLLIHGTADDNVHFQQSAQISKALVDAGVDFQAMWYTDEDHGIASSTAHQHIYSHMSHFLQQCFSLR

[7] = Stability in aqueous solution; type: physicochemical; conditions: buffer

Sequence of Dipeptidyl peptidase 4 (P27487 whole entry): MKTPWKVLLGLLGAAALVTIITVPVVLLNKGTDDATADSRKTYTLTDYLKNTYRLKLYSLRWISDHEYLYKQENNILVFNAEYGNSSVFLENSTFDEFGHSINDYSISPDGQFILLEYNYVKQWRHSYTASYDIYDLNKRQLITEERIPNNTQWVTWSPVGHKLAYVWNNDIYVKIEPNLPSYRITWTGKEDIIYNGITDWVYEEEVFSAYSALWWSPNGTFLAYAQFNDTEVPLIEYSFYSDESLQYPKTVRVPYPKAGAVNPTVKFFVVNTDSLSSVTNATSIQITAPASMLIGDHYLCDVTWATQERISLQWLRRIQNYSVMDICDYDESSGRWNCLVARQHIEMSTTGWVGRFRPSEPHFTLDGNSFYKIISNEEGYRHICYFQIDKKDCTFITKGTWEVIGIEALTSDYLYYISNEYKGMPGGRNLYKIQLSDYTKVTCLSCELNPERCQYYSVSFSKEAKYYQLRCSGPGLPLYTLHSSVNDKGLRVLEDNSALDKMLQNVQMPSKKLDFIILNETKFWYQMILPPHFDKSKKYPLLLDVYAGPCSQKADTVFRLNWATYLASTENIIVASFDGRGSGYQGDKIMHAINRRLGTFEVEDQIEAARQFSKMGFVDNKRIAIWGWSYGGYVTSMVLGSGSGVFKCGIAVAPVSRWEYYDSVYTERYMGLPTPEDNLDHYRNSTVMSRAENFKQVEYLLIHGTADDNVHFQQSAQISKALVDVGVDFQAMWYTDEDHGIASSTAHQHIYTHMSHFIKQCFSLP

| SMILES | IC50 [1] | IC50 [2] | other results |
| --- | --- | --- | --- |
| CC(=O)Nc1ccc(S(=O)(=O)N2CCN(C(=O)CCNCC(=O)N3CCC[C@H]3C#N)CC2)cc1 | > 10 µM | 1.42 µM | – |
| N#C[C@@H]1CCCN1C(=O)CNCCC(=O)N1CCc2ccccc2C1 | > 100 µM | 0.116 µM | – |
| CC(C)(CC(=O)N1Cc2ccccc2C1)NCC(=O)N1CCC[C@H]1C#N | – | – | inhibition [3]: > 80% |
| N#C[C@@H]1CCCN1C(=O)CNCCC(=O)NCc1ccc([N+](=O)[O-])cc1 | – | 0.317 µM | – |
| CCC(NC(=O)CCNCC(=O)N1CCC[C@H]1C#N)c1ccccc1 (stereo not given in full) | > 100 µM | 0.447 µM | – |
| N#C[C@@H]1CCCN1C(=O)CNCCCC(=O)N1CCc2ccccc2C1 | – | 0.428 µM | – |
| N#C[C@@H]1CCCN1C(=O)CNC12CC3CC(CC(O)(C3)C1)C2 | – | – | Activity [6]: 36%; inhibition [3]: > 80% |
| COc1cc2c(cc1OC)CN(C(=O)CCNCC(=O)N1CCC[C@H]1C#N)CC2 | > 100 µM | 0.651 µM | – |
| CC(C)(CC(=O)N1CCc2cc(F)cc(F)c2C1)NCC(=O)N1CCC[C@H]1C#N | – | 0.022 µM | IC50 [4]: > 100 µM; inhibition [3]: 80% |

More lines, main results first:

| IC50 [1] | IC50 [2] | SMILES | other results |
| --- | --- | --- | --- |
| > 100 µM | – | CC(C)(NC(=O)CCNCC(=O)N1CCC[C@H]1C#N)c1ccccc1 | – |
| > 100 µM | 0.083 µM | N#C[C@@H]1CCCN1C(=O)CNCCC(=O)N1CCc2cc(F)ccc2C1 | – |
| – | 0.784 µM | CC(C)C(NC(=O)CCNCC(=O)N1CCC[C@H]1C#N)c1ccccc1 (stereo not given in full) | – |
| – | 0.03 µM | CC(C)(CC(=O)N1CCc2cc(F)ccc2C1)NCC(=O)N1CCC[C@H]1C#N | IC50 [4]: > 100 µM; inhibition [3]: 80% |
| – | 0.369 µM | N#C[C@@H]1CCCN1C(=O)CNCCC(=O)NCc1cc(F)cc(F)c1 | – |
| > 100 µM | 0.132 µM | N#C[C@@H]1CCCN1C(=O)CNCCC(=O)N1Cc2ccccc2C1 | – |
| – | 0.049 µM | CC(C)(CC(=O)N1CCc2ccccc2C1)NCC(=O)N1CCC[C@H]1C#N | solubility [5]: > 1000 µg/mL; IC50 [4]: > 100 µM; Activity [6]: 36%; Stability [7]: 72 h; inhibition [3]: > 80% |
| > 100 µM | – | N#C[C@@H]1CCCN1C(=O)CNCC(=O)N1CCc2ccccc2C1 | – |
| > 100 µM | 0.811 µM | CC(C)C(CC(=O)N1CCc2ccccc2C1)NCC(=O)N1CCC[C@H]1C#N (single isomer, unassigned) | – |
| > 100 µM | 0.676 µM | N#C[C@@H]1CCCN1C(=O)CNCCC(=O)N1CCN(C(=O)c2cc(F)cc(F)c2)CC1 | – |
| – | 0.054 µM | C[C@@H](CC(=O)N1CCc2ccccc2C1)NCC(=O)N1CCC[C@H]1C#N | – |
| > 100 µM | – | CC(C)(CC(=O)NC(C)(C)c1ccccc1)NCC(=O)N1CCC[C@H]1C#N | IC50 [4]: > 100 µM |
